Laboratory results: patent US20240225893A9, “SUSTAINED-RELEASE IMPLANTS FOR LOWERING INTRAOCULAR PRESSURE WITH EXTENDED DURATION OF EFFECT” (Allergan, Inc., priority 2017, published 2024)
Like-named read-outs stand apart in the source and are kept apart here.

Tests used:
[1] = tested on: glaucoma patients; experiment: Phase 1/2 prospective 24-month paired-eye clinical trial of BimSR (Example 1); format: in vivo, human; conditions: month 24, topical bimatoprost solution 0.03% once a day
Protocol: A phase 1/2, prospective, 24-month, paired-eye clinical trial was conducted in 75 glaucoma patients with study eye baseline mean TOP of 25.2 (range 22-36) mmHg after washout. An intraocular implant having the composition as described in US Patent Publication No. 2015-0118279 as formulation 2, as described in TABLE 1 of the specification (6, 10, 15, or 20 μg dose strength) was administered intracamerally in the study eye; the fellow eye was treated with topical bimatoprost solution 0.03% once a day. Long-term TOP-lowering effect was assessed by TOP, time to additional TOP-lowering treatment, and percentage of patients without additional TOP-lowering treatment. Patients were permitted rescue topical medication or a single repeat treatment with BimSR. Results are presented for the 10 and 15 μg dose strengths of BimSR (n=21 for each) that are continuing in development.
Up to 4 and 6 months, 95.2% and 66.7% of patients, respectively, were controlled on the initial BimSR 10 or 15 μg treatment without need for rescue medication or implant retreatment. The median time to additional TOP-lowering treatment after BimSR administration was 38-39 weeks.
A single administration of BimSR 10 or 15 μg controlled TOP up to 6 months in 66.7% of patients and 23.8% of patients at 24 months.

[2] = Systemic pharmacokinetics after intracameral Bimatoprost SR (study TX12102); format: in vivo; conditions: dogs; intracameral Bimatoprost SR 10, 15 & 20 μg; blood; LLOQ 0.025 ng/mL (AGN-192024), 0.05 ng/mL (AGN-191522)
[3] = Systemic pharmacokinetics after intracameral Bimatoprost SR Gen 1 (study TX09051); format: in vivo; conditions: monkey; intracameral 30 μg (Gen 1)
[4] = Aqueous humor pharmacokinetics after topical bimatoprost (study PK10130); format: in vivo; conditions: dog; topical bimatoprost 0.03% QD; LLOQ 0.200 ng/mL (AGN-192024)
[5] = Systemic pharmacokinetics after topical bimatoprost (study 6177-110); format: in vivo; conditions: monkey, blood, LLOQ 0.100 ng/mL (AGN-191522)
[6] = Ocular pharmacokinetics after topical bimatoprost (study PK-98-003); format: in vivo; conditions: monkey; topical bimatoprost 0.1% QD
[7] = Ocular pharmacokinetics after topical bimatoprost (study PK-97-032); format: in vivo; conditions: monkey; topical bimatoprost 0.1% BID
[8] = Systemic pharmacokinetics after topical bimatoprost (study PK-98-119); format: in vivo; conditions: human; topical bimatoprost 0.03% QD
[9] = human; topical bimatoprost 0.03% QD; cited from earlier work
[10] = tested on: prostaglandin (PG) sensitive receptors; conditions: cited from earlier work

| SMILES | mean (SD) TOP (intraocular pressure) ([1]; fellow eyes of BimSR 10 μg group) | mean (SD) TOP (intraocular pressure) ([1]; fellow eyes of BimSR 15 μg group) | Systemic Concentration [2] | Systemic Concentration [3] | Aqueous Humor Concentration [4] | Systemic Concentration ([5]; topical bimatoprost 0.03% QD) | Systemic Concentration ([5]; topical bimatoprost 0.1% BID) | Aqueous Humor Concentration [6] | Tissues Concentration Cornea [6] | Tissues Concentration ICB [6] | Aqueous Humor Concentration [7] | Tissues Concentration Cornea [7] | Tissues Concentration ICB [7] | Systemic Concentration [8] | Aqueous Humor Concentration [9] | interaction with prostaglandin (PG) sensitive receptors [10] |
| --- | --- | --- | --- | --- | --- | --- | --- | --- | --- | --- | --- | --- | --- | --- | --- | --- |
| CCNC(=O)CCC/C=C\C[C@@H]1[C@@H](/C=C/[C@@H](O)CCc2ccccc2)[C@H](O)C[C@@H]1O [AGN-192024, bimatoprost] | 16.4 (2.1) mmHg | 15.4 (2.4) mmHg | BLQ^a | 0.280 ng/mL | BLQ^d | 0.397 ng/mL | 1.92 ng/mL | 34.5 ng/mL | 558 ng/g | 797 ng/g | 13.0 ng/mL | 2890 ng/g | 1369 ng/g | 0.0822 ng/mL | 2.37 ng/mL | no meaningful interaction |
| O=C(O)CCC/C=C\C[C@@H]1[C@@H](/C=C/[C@@H](O)CCc2ccccc2)[C@H](O)C[C@@H]1O [AGN-191522, bimatoprost acid] |  |  |  | 0.165 ng/mL | 2.0 ng/mL | BLQ^e | BLQ^e |  |  |  |  |  |  | 2.41 ng/mL | 8.55 ng/mL |  |
